Results on two compounds are retold here after patent US4778803A, “Nitrogen-arylmethoxy-thiophene derivatives and acid addition salts thereof, and pharmaceutical preparations containing these compounds” (Chemie Linz Aktiengesellschaft, priority 1986, dated 1988).

The subject of this assay is leukotriene B4 (LTB4) formation in human granulocytes. The assay is described as follows: inhibitory action on leukotriene B4 (LTB4) formation induced by the calcium ionophor A 23-187 in human granulocytes. The following applies: 10 min, 10^7 cells per ml, 10 minutes at 37° C. with compound, then 10 minutes with A 23 187 (final concentration 1 μm), HPLC, 280 nm, 2 experiments per concentration, read-out: concentration which led to a 50% inhibition (IC50) of LTB4 formation. The format is cell-based. How it is done:
To investigate the pharmacological properties of the substances according to the invention, their inhibitory action on leukotriene B4 (LTB4) formation induced by the calcium ionophor A 23-187 was measured. For this, human granulocytes were washed, the cell count was adjusted to 10^7 cells per ml and the cells were incubated for 10 minutes at 37° C. with the compounds according to the invention, such as, for example, 1-(5-(2-quinolinylmethoxy)-2-thienyl)-1-hexanone (compound according to Example 3) or alpha-pentyl-5-(2-quinolinylmethoxy)-2-thiophenemethanol (compound according to Example 5), which had been dissolved to 10^-2 M in dimethylsulfoxide and diluted to the desired concentration with physiological NaCl. The cells were then incubated for a further 10 minutes, after addition of A 23 187 (final concentration 1 μm). The reaction was stopped by addition of glacial acetic acid. The mixture was centrifuged, the supernatant was pipetted off and prostaglandin B2 was added as an internal standard.
The lipid fraction was resolved via HPLC, LTB4 and its 20--OH-- and 20--COOH-metabolites being determined photometrically at 280 nm.
2 experiments were carried out for each concentration value of the substances according to the invention and the concentration which led to a 50% inhibition (IC50) of LTB4 formation was determined for each substance. […]

With `CCCCCC(=O)c1ccc(OCc2ccc3ccccc3n2)s1` [Example 3, 1-[5-(2-Quinolinylmethoxy)-2-thienyl]-1-hexanone], the IC50 was determined as 200 nM.

Consider `CCCCCC(O)c1ccc(OCc2ccc3ccccc3n2)s1` (stereo not drawn) [Example 5, α-Pentyl-5-(2-quinolinylmethoxy)-2-thiophenemethanol], for which the IC50 turned out to be 1000 nM.
